From article PMC3351437, “Skin-Targeted Inhibition of PPAR β/δ by Selective Antagonists to Treat PPAR β/δ – Mediated Psoriasis-Like Skin Disease In Vivo” (PLoS ONE, 2012)
Like-named read-outs stand apart in the source and are kept apart here.

What was measured:
psoriasis = tested on: psoriasis; set-up: method as in PMID 12673084; settings: cited from earlier work
PPAR β/δ = tested on: PPAR β/δ; set-up: method as in PMID 17488971; settings: cited from earlier work
[1] = Drug solubility in ointment, absence of crystals by polarised microscopy; format: physicochemical; settings: Hydromol ointment with DMSO
Protocol: These included drug incorporation into liquified vehicle at 70°C, pre-disolvement in DMSO, ethanol, isopropanol, polyethyene glycol 300, and olive oil followed by vehicle incorporation, as well as a variety of vehicles (liquid paraffin, Hydromol ointment, aqueous ointment BP). Drug solubility was assessed using a previously reported method relying on the absence of crystals detectable by polarised microscopy.
All PPAR β/δ antagonists were custom-synthesized by AF-Chempharm (UK). […] Compound 3 h was pre-dissolved in DMSO, left at room temperature for 20 min at low agitation and then incorporated into Hydromol ointment using a melamin bowl to yield final concentrations of 0.5% (w/w) 3 h, and 5% (w/w) of DMSO, respectively. […] Vehicle-only contro ointment was prepared exactly as GSK0660 ointment while omitting the chemical itself. Ointments were stored in airtight containers at 4°C in the dark and made fresh once a week.

[2] = Blood concentration after topical application (UPLC/mass spectrometry); format: in vivo, C57Bl/6j wild type mice; settings: for total amount of detectable compound in blood as fraction of total drug applied: 1 h after topical application, blood volume assumed 7% of body mass
Protocol: (§1) 50 µL of cardiac blood were diluted 1∶2 (v∶v) with milipore water and snap frozen immediately. Previously treated skin segments were shaved, tape-stripped three times to remove residual hair and non-absorbed ointment on the surface, and then snap frozen in liquid nitrogen. Frozen skin was ground and ten times the volume of methanol-water (1∶1 v/v) was added per weight unit of skin. A minimum of 20 mg of skin was used per each sample. Samples were homogenized with a Covaris S2 acoustic homogeniser. For both cardiac blood and skin homogenate, proteins were precipitated by adding 3 volumes of acetonitrile containing a suitable internal standard. All samples were then centrifuged for 10 minutes at 2800 rpm before transfer of 200 µL of supernatant into a 96 well plate and 100 µL of milliQ water added. Calibration curves were constructed in either untreated homogenised skin or blood to cover at least 3 orders of magnitude (1–2000 ng/mL) and extracted as for aforementioned study samples. All cardiac blood, skin samples and standards were then investigated by mass spectrometry as described below. For calculation of total blood volume, mice were weighed and an average blood volume of 7% (mL/g) of body mass was assumed.
(§2) An Acquity ultra high performance liquid chromatography (UPLC) system; consisting of an autosampler, the Acquity UPLC Sample Manager with Sample Organiser, a pump, the Acquity UPLC Binary Solvent Manager, an in-built column oven, a UV detector, the Acquity UPLC Photo Diode Array) and a Quattro Premier XE triple quadrupole mass spectrometer (Waters, UK). […] The analytical column was an Acquity UPLC BEH C18, 2.1 mm i.d. ×50 mm length, 1.7 µm particle size (Waters, UK). No guard column was used, but a vanguard […].
(§3) Mobile phase A was Milli-Q reverse phase de-ionised water with formic acid (0.1%, v∶v), mobile phase B was acetonitrile with formic acid (0.1%, v∶v). Mobile phase was delivered at a flow rate of 0.6 mL/min. […] Finally mobile phase B was returned to 5% over 0.1 min and maintained at this composition for 0.4 min. Total run time 3 min.
(§4) The entire flow was introduced into the Mass spectrometer. The autosampler was set at 4°C and an injection voloume of 5 µL was used (partial loop). […] An in-house proprietary internal standard was used for determination of all 3 analytes.

[3] = Skin concentration after topical application (UPLC/mass spectrometry); format: in vivo, C57Bl/6j wild type mice; settings: for local concentration in skin at steady state: twice daily for seven days, even for the lower dose used (0.2%), 1 h after last application
Protocol: as §1, §2
as §3, with “3 min. […]” for “3 min.”

shaved dorsal skin = experiment: Skin histology after one week of topical application (inflammatory changes); format: in vivo, C57Bl/6j wild type mice; settings: for number of dermal nuclei per high power field: vs vehicle-only treated skin; for epidermal hyperplasia induced by antagonist: twice daily for one week
Protocol: We next determined the local concentrations in skin at steady state after prolonged topical application. […] Skin samples were then extracted and analysed by mass spectrometry for concentration determination as well as processed for histology. […] 90 min (cf. fig. 2b). […] Infrequently, we noted apoptotic epidermal keratinocytes (inset, middle row of H&E sections). Since these cells were also found in transgenic PPAR β/δ mice treated with the agonist only (figure S1), the exact underlying cause is unclear but unlikely to underlie the treatment effect of the antagonist creams.
Figure 4 Absence of inflammatory changes induced by PPAR β/δ antagonists in skin after topical application. […] Mice were sacrificed 1 h after the last ointment application and skin tissue processed for H&E based histology and mass spectrometry, as described in Methods. Data shown represent average ± s.d. of n = 3 mice per data point (left) treated with GSK (blue columns) or compound 3 h (red). Representative histology sections of all treated mice are shown on right. […] Horizontal bar represents 5 µm.
(§5) Mice were sacrificed, skin samples obtained and processed for H&E based histology as described. All samples were photographed at 200× magnification. Epidermal thickness was measured for all slides by a blinded observer at perpendicular angle to the basement membrane. The absence of variable planes of tissue sectioning as a confounder for apparent epidermal thickness was ruled out by verifying visible perpendicular insertion of hair follicles into the epidermis. For each sample, two measurements were taken in two separately photographed non-adjacent sections of the H&E stained skin sample.

[4] = tested on: PPAR β/δ mediated psoriasis-like skin disease; experiment: Prevention of epidermal hyperplasia, agonist GW501516 and antagonist both topical; format: in vivo, PPAR β/δ transgenic mice; settings: antagonist ointment once per day, GW501516 0.1% ointment five times per week, 20 days
Protocol: as §5, with “The absence of variable planes of tissue sectioning as a confounder for apparent epidermal thickness was ruled out by verifying visible perpendicular insertion of hair follicles into the epidermis.” left out

PPARβ/δ [5] = settings: cited from earlier work; for IC50: in vitro data taken from literature, ref references listed in Figure 1, read-out: IC50 PPARβ/δ binding
PPARβ/δ [6] = settings: in vitro data taken from literature; ref references listed in Figure 1; read-out: EC50 PPARβ/δ competitive antagonism; cited from earlier work
other PPAR isoforms = tested on: other PPAR isoforms; set-up: method as in references listed in Figure 1 / ref 13; settings: in vitro data taken from literature, ref references listed in Figure 1 / ref 13, cited from earlier work
psoriasis (PASI scores) = tested on: psoriasis (PASI scores); set-up: method as in PMID 15479756; settings: systemic administration; cited from earlier work
[7] = Storage stability at room temperature and light exposure; format: physicochemical
[8] = Drug quantification in skin and blood of diseased mice (mass spectrometry); format: in vivo, PPAR β/δ transgenic mice; settings: for concentration at 12 h: 12 h after the last cream application
Protocol: as §1, §2, §3, §4

[9] = tested on: HB-EGF, IL1b, LCE3e/LCE3f expression; experiment: Real-time PCR of PPAR β/δ target genes in skin; format: in vivo, PPAR β/δ transgenic mice
Description: Skin was processed by removing subcutaneous tissue and small skin pieces were snap frozen in liquid nitrogen. Frozen skin was ground and RNA was extracted using the NucleoSpin RNA/Protein kit from Macherey-Nagel. cDNA synthesis was done with the SuperScript Vilo cDNA synthesis kit from Invitrogen. Gene expression levels were quantified using TaqMan-based real-time PCR using Assays-on-Demand kits obtained from Applied biosystems according to the manufacturer's instruction and quantification performed as calibrated to the internal housekeeping gene GAPDH (LCE3f: Mm02605425, Il1β: Mm01336189, Hb-EGF: Mm00439305).

[10] = set-up: method as in PMID 17975020; settings: cited from earlier work
[11] = tested on: PPAR β/δ mediated skin disease; experiment: Control of skin disease induced by i.p. GW501516, ointment at different frequencies; format: in vivo, PPAR β/δ transgenic mice
Protocol: All animal studies reported here were subject to approval of Tayside Research Ethics Committee, and are conducted in accordance with UK Home Office procedures (project licence 60/3800, licence holder JF). Breeding of PPAR β/δ transgenic mice and genotyping were all carried out as described previously. […]
as §5, with “The absence of variable planes of tissue sectioning as a confounder for apparent epidermal thickness was ruled out by verifying visible perpendicular insertion of hair follicles into the epidermis.” left out

Q: With `CN(CCOc1ccc(CC2SC(=O)NC2=O)cc1)c1ccccn1` (centres unmarked) [rosiglitazone] as the compound, how does the “effect of topical application on psoriasis” value (psoriasis) read?
A: showed no effect

Q: And the “activation of PPAR β/δ” value (PPAR β/δ)?
A: can also activate PPAR β/δ

Q: For `CCCCOc1ccc(-c2ccc(C(=O)O)cc2C)cc1CNC(=O)c1ccc(C(F)(F)F)cc1F` [compound 3 h], which “drug concentration up to which the optimised ointment formulation is devoid of drug crystals” value [1] is on record?
A: up to 2 % (w/w)

Q: And the “peak systemic concentration compared with reported EC50/IC50” value ([2]; 1 h after topical application of ointment)?
A: slightly above the in vitro determined EC50 value

Q: What about the “total amount of detectable compound in blood as fraction of total drug applied” value [2] of the same compound?
A: less than 0.01%

Q: And the “local concentration in skin at steady state” value [3]?
A: high local concentrations

Q: What about the “number of dermal nuclei per high power field” value (shaved dorsal skin; one week) of the same compound?
A: unchanged as compared to vehicle-only treated skin

Q: What about the “epidermal hyperplasia induced by antagonist” value (shaved dorsal skin; H&E) of the same compound?
A: neither antagonist produced notable epidermal hyperplasia

Q: What about the “psoriasis-like epidermal hyperplasia induced by GW501516” value [4] of the same compound?
A: significantly attenuated

Q: What about the IC50 (PPARβ/δ [5]) of the same compound?
A: 10 nM

Q: And the Ki (PPARβ/δ [5]; low reported Ki)?
A: 11 nM

Q: What about the EC50 (PPARβ/δ [6]) of the same compound?
A: 11 nM

Q: What about the “Activity on other PPAR isoforms” value (other PPAR isoforms; listed as Compound 3 h) of the same compound?
A: lack of activity on other PPAR isoforms

Q: What about the “Activity on other PPAR isoforms” value (other PPAR isoforms; listed as Compound 3h) of the same compound?
A: Not active at 1 μM

Q: For `CCCCCCCCCCCCCCSCC(=O)O` [tetradecylthioacetic acid (TTA), tetradecylthioacetic acid], which “effect of topical application on psoriasis” value (psoriasis) is on record?
A: showed no effect

Q: For `Cc1cc(SCc2sc(-c3ccc(C(F)(F)F)cc3)nc2C)ccc1OCC(=O)O` [GW501516], which “systemic absorption relative to the antagonists” value ([2]; 1 h post application, ointment concentrated 10-fold less (0.1%)) is on record?
A: 100 fold

Q: And the peak serum concentration ([2]; 1 h post topical application, 0.1% ointment)?
A: 400 nM

Q: With `CCc1ccc(CCOc2ccc(CC3SC(=O)NC3=O)cc2)nc1` (centres unmarked) [pioglitazone] as the compound, how does the “effect on PASI scores” value (psoriasis (PASI scores)) read?
A: no marked reduction of PASI scores

Q: Which “drug concentration up to which the optimised ointment formulation is devoid of drug crystals” value [1] does the source give for `COC(=O)c1sccc1S(=O)(=O)Nc1ccc(Nc2ccccc2)cc1OC` [GSK0660] here?
A: up to 2 % (w/w)

Q: And the “stability on storage (colour change)” value [7]?
A: visible colour change from yellow to green

Q: What about the “total amount of detectable compound in blood as fraction of total drug applied” value [2] of the same compound?
A: less than 0.01%

Q: What about the “drug accumulation in blood” value ([2]; blood measured for 24 h after drug application) of the same compound?
A: no evidence of drug accumulation

Q: What about the “total drug detectable in blood as fraction of total drug applied” value ([2]; over 24 h after drug application (figure 2b)) of the same compound?
A: less than 0.01%

Q: And the half-life ([3]; C57Bl/6j, mouse, topical, 42 mg ointment applied to dorsal skin (figure 3))?
A: ~1.5 h

Q: And the “local concentration in skin at steady state” value [3]?
A: high local concentrations

Q: And the apoptotic epidermal keratinocytes (shaved dorsal skin; one week, H&E)?
A: apoptotic looking cells

Q: What about the “number of dermal nuclei per high power field” value (shaved dorsal skin; one week) of the same compound?
A: unchanged as compared to vehicle-only treated skin

Q: What about the “epidermal hyperplasia induced by antagonist” value (shaved dorsal skin; H&E) of the same compound?
A: neither antagonist produced notable epidermal hyperplasia

Q: And the concentration at 12 h ([8]; PPAR β/δ transgenic, mouse, skin, topical, after 20 days of treatment, read-out: concentration in skin tissue)?
A: 48 ± 18 ng/g

Q: What about the concentration at 12 h ([8]; PPAR β/δ transgenic, mouse, whole blood, topical, after 20 days, threshold of detection, read-out: concentration in blood) of the same compound?
A: < 25 nM

Q: What about the “reversal of IL1b expression” value ([9]; qPCR, oral GW501516, ointment twice daily three weeks) of the same compound?
A: only observed using the ointment containing GSK0660

Q: And the “Activity on other PPAR isoforms” value (other PPAR isoforms)?
A: Not active at 10 μM

Q: And the “bioavailability upon systemic administration” value [10]?
A: lack of bioavailability upon systemic administration

Q: With `O=C(NCCS(=O)(=O)c1ccc(C(F)(F)F)cn1)c1ccc(Cl)cc1` [GSK3787] as the compound, how does the concentration at 20 days ([2]; C57Bl/6j, mouse, whole blood, topical, healthy mice after 20 days of twice-daily treatment, n = 3) read?
A: 50.2 ± 25.7 nM

Q: And the “tissue level of unmodified drug in lesional skin” value ([8]; 16 h after the final application)?
A: 240 ± 116 nmol/g of tissue

Q: And the concentration at 16 h ([8]; PPAR β/δ transgenic, mouse, whole blood, topical, inflamed skin, 16 h after last cream application, read-out: concentration in blood at the end of the experiment)?
A: 445 ± 429 nM

Q: And the “expression of PPAR β/δ target genes LCE3f, IL1-beta, and HBEGF” value ([9]; twice-daily versus three times weekly application (fig. 8b))?
A: suppression

Q: What about the “range of therapeutic activity” value ([11]; H&E of treated area and its edge (figure S2)) of the same compound?
A: efficacy was limited to the area of cream application

Q: And the “reducing the amount of dermal infiltrate” value ([11]; even when applied only 3× per week (fig. 7b))?
A: as effective as GSK0660

Q: And the preventing epidermal hyperplasia ([11]; even when applied only 3× per week, comparator twice daily (fig. 7a))?
A: as effective as GSK0660

Q: And the “mode of receptor inactivation” value (PPARβ/δ [5])?
A: irreversibly inactivates the receptor by forming a covalent bond

Q: What about the IC50 (PPARβ/δ [5]) of the same compound?
A: 6.7 nM

Q: What about the EC50 (PPARβ/δ [6]) of the same compound?
A: 100 nM

Q: And the “Activity on other PPAR isoforms” value (other PPAR isoforms)?
A: Active on PPARγ at 1 μM
